Columns and labels:
AMBEL (Ragweed, Common) = test: Postemergence herbicidal evaluation; type: in vivo, Ambrosia artemisifolia; details: postemergence
In short: (§1)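 Two-week-old seedlings sprayed with compound in 50/50 acetone/water plus 0.5% TWEEN 20, at about 0.0156 to 0.500 kg/ha, nozzle at 40 psi. Kept in greenhouse; rated visually 4-5 weeks after treatment on a 0-9 scale versus control, repeat tests averaged.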

CASOB (Sicklepod) [1] = test: Postemergence herbicidal evaluation; type: in vivo, Cassia obtusifolia; details: postemergence
In short: as §1

[2] = tested on: CHEAL (Lambsquarters, Common); test: Postemergence herbicidal evaluation; type: in vivo, Chenopodium album; details: postemergence
In short: as §1

GALAP (Galium) [3] = test: Postemergence herbicidal evaluation; type: in vivo, Galium aparine; details: postemergence
In short: as §1

ECHCG (Barnyardgrass) = test: Postemergence herbicidal evaluation; type: in vivo, Echinochloa crus-galli; details: postemergence
In short: as §1

SETVI (Foxtail, Green) = test: Postemergence herbicidal evaluation; type: in vivo, Setaria viridis; details: postemergence
In short: as §1

[4] = tested on: GLXMAW (Soybean, Williams); test: Postemergence herbicidal evaluation; type: in vivo, Glycine max, (L.) Merr. cv Williams; details: postemergence
In short: as §1

ORYSAT (Rice, Tebonnet) = test: Postemergence herbicidal evaluation; type: in vivo, Oryza sativa, (L.) Tebonnet; details: postemergence
In short: as §1

CASOB (Sicklepod) [5] = test: Preemergence herbicidal evaluation; type: in vivo, Cassia obtusifolia; details: preemergence, rated 4-5 weeks after treatment, 0-9 scale
In short: (§2)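 Rating at 4–5 wk post-spray on a 0–9 visual scale vs control. Application: aqueous acetone, ~0.0156–0.500 kg/ha, to soil surface after seeding, preemergence.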

GALAP (Galium) [6] = test: Preemergence herbicidal evaluation; type: in vivo, Galium aparine; details: preemergence, rated 4-5 weeks after treatment, 0-9 scale
In short: as §2

ZEAMX (Corn, Field) = test: Preemergence herbicidal evaluation; type: in vivo, Zea mays; details: preemergence, rated 4-5 weeks after treatment, 0-9 scale
In short: as §2

CYPIR (Rice Flatsedge) = test: Preemergence weed control under flooded paddy conditions; type: in vivo, Cyperus iria; details: rated 3-4 weeks after treatment
In short: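 Seeds or propagules sown in top 0.5 cm of silt loam soil, flooded 1.5 to 3 cm above surface throughout. Compound in 50/50 v/v aqueous/acetone pipetted into flood water at about 0.0313 to 0.500 kg/ha. Visual 0-9 rating versus control after three to four weeks in greenhouse.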

CYPSE (Flatsedge) [7] = test: as above; type: in vivo, Cyperus serotinus; details: rated 3-4 weeks after treatment
In short: (§3)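 Greenhouse paddy assay. Acetone/water (50/50 v/v) solutions dosed into flood water, equivalent to about 0.0313 to 0.500 kg/ha active ingredient, over seeds planted 0.5 cm deep in silt loam. Score: 0-9 visual, based on stand, vigor, malformation, size and chlorosis, 3 to 4 weeks after treatment.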

[8] = tested on: SAGPY (Arrowhead (Pygmaea)); test: as above; type: in vivo, Sagittaria pygmaea; details: rated 3-4 weeks after treatment
In short: as §3

CYPSE (Flatsedge) [9] = test: Postemergence weed control under flooded paddy conditions; type: in vivo, Cyperus serotinus; details: postemergence weeds, rated 3 to 4 weeks after treatment
In short: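 With weeds 3 to 5 cm tall and rice at the 1.5 to 2.5 leaf stage, containers were flooded and water held 1.5 to 3 cm above soil. Compounds in 50/50 v/v aqueous/acetone went into the flood water at about 0.0313 to 0.500 kg/ha a.i. Effects were visually rated 0–9 against controls after three to four weeks in the greenhouse.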

SMILES: C=CCN1C(=O)C(CC(=O)OCCF)SC1=Nc1cc(-n2c(=O)cc(C(F)(F)F)n(C)c2=O)c(F)cc1Cl (stereo not drawn) [Compound 86, 2-Fluoroethyl 3-allyl-2-{{2-chloro-5-[3,6-dihydro-3-methyl-2,6-dioxo-4-(trifluoromethyl)-1(2H)-pyrimidinyl]-4-fluorophenyl}imino}-4-oxo-5-thiazolidineacetate]
- AMBEL herbicidal rating (AMBEL (Ragweed, Common); rate 0.0156 kg/ha): 9.0
- AMBEL herbicidal rating (AMBEL (Ragweed, Common); rate 0.0313 kg/ha): 9.0
- AMBEL herbicidal rating (AMBEL (Ragweed, Common); rate 0.0625 kg/ha): 9.0
- AMBEL herbicidal rating (AMBEL (Ragweed, Common); rate 0.1250 kg/ha): 9.0
- CASOB herbicidal rating (CASOB (Sicklepod) [1]; rate 0.0156 kg/ha): 1.0
- CASOB herbicidal rating (CASOB (Sicklepod) [1]; rate 0.0313 kg/ha): 2.0
- CASOB herbicidal rating (CASOB (Sicklepod) [1]; rate 0.0625 kg/ha): 7.0
- CASOB herbicidal rating (CASOB (Sicklepod) [1]; rate 0.1250 kg/ha): 9.0
- CHEAL herbicidal rating ([2]; rate 0.0156 kg/ha): 9.0
- CHEAL herbicidal rating ([2]; rate 0.0313 kg/ha): 9.0
- CHEAL herbicidal rating ([2]; rate 0.0625 kg/ha): 9.0
- CHEAL herbicidal rating ([2]; rate 0.1250 kg/ha): 9.0
- GALAP herbicidal rating (GALAP (Galium) [3]; rate 0.0156 kg/ha): 2.0
- GALAP herbicidal rating (GALAP (Galium) [3]; rate 0.0313 kg/ha): 5.0
- GALAP herbicidal rating (GALAP (Galium) [3]; rate 0.0625 kg/ha): 9.0
- GALAP herbicidal rating (GALAP (Galium) [3]; rate 0.1250 kg/ha): 9.0
- ECHCG herbicidal rating (ECHCG (Barnyardgrass); rate 0.0156 kg/ha): 3.0
- ECHCG herbicidal rating (ECHCG (Barnyardgrass); rate 0.0313 kg/ha): 9.0
- ECHCG herbicidal rating (ECHCG (Barnyardgrass); rate 0.0625 kg/ha): 9.0
- ECHCG herbicidal rating (ECHCG (Barnyardgrass); rate 0.1250 kg/ha): 9.0
- SETVI herbicidal rating (SETVI (Foxtail, Green); rate 0.0156 kg/ha): 8.0
- SETVI herbicidal rating (SETVI (Foxtail, Green); rate 0.0313 kg/ha): 9.0
- SETVI herbicidal rating (SETVI (Foxtail, Green); rate 0.0625 kg/ha): 9.0
- SETVI herbicidal rating (SETVI (Foxtail, Green); rate 0.1250 kg/ha): 9.0
- GLXMAW herbicidal rating ([4]; rate 0.0156 kg/ha): 8.5
- GLXMAW herbicidal rating ([4]; rate 0.0313 kg/ha): 9.0
- GLXMAW herbicidal rating ([4]; rate 0.0625 kg/ha): 9.0
- GLXMAW herbicidal rating ([4]; rate 0.1250 kg/ha): 9.0
- ORYSAT herbicidal rating (ORYSAT (Rice, Tebonnet); rate 0.0156 kg/ha): 3.0
- ORYSAT herbicidal rating (ORYSAT (Rice, Tebonnet); rate 0.0313 kg/ha): 7.5
- ORYSAT herbicidal rating (ORYSAT (Rice, Tebonnet); rate 0.0625 kg/ha): 7.5
- ORYSAT herbicidal rating (ORYSAT (Rice, Tebonnet); rate 0.1250 kg/ha): 8.5
- CASOB rating (CASOB (Sicklepod) [5]; 0.0156 kg/ha): 0.0
- CASOB rating (CASOB (Sicklepod) [5]; 0.0313 kg/ha): 0.0
- CASOB rating (CASOB (Sicklepod) [5]; 0.0625 kg/ha): 0.0
- CASOB rating (CASOB (Sicklepod) [5]; 0.1250 kg/ha): 0.0
- CASOB rating (CASOB (Sicklepod) [5]; 0.2500 kg/ha): 0.0
- CASOB rating (CASOB (Sicklepod) [5]; 0.5000 kg/ha): 3.0
- GALAP rating (GALAP (Galium) [6]; 0.0156 kg/ha): 0.0
- GALAP rating (GALAP (Galium) [6]; 0.0313 kg/ha): 0.0
- GALAP rating (GALAP (Galium) [6]; 0.0625 kg/ha): 0.0
- GALAP rating (GALAP (Galium) [6]; 0.1250 kg/ha): 0.0
- GALAP rating (GALAP (Galium) [6]; 0.2500 kg/ha): 9.0
- GALAP rating (GALAP (Galium) [6]; 0.5000 kg/ha): 9.0
- ZEAMX rating (ZEAMX (Corn, Field); 0.0156 kg/ha): 0.0
- ZEAMX rating (ZEAMX (Corn, Field); 0.0313 kg/ha): 0.0
- ZEAMX rating (ZEAMX (Corn, Field); 0.0625 kg/ha): 0.0
- ZEAMX rating (ZEAMX (Corn, Field); 0.1250 kg/ha): 0.0
- ZEAMX rating (ZEAMX (Corn, Field); 0.2500 kg/ha): 4.0
- ZEAMX rating (ZEAMX (Corn, Field); 0.5000 kg/ha): 9.0
- CYPIR herbicidal effect rating (CYPIR (Rice Flatsedge); 0.0313 kg/ha): 3.0
- CYPIR herbicidal effect rating (CYPIR (Rice Flatsedge); 0.0625 kg/ha): 7.0
- CYPIR herbicidal effect rating (CYPIR (Rice Flatsedge); 0.1250 kg/ha): 8.0
- CYPIR herbicidal effect rating (CYPIR (Rice Flatsedge); 0.2500 kg/ha): 9.0
- CYPSE herbicidal effect rating (CYPSE (Flatsedge) [7]; 0.0313 kg/ha): 0.0
- CYPSE herbicidal effect rating (CYPSE (Flatsedge) [7]; 0.0625 kg/ha): 0.0
- CYPSE herbicidal effect rating (CYPSE (Flatsedge) [7]; 0.1250 kg/ha): 3.0
- CYPSE herbicidal effect rating (CYPSE (Flatsedge) [7]; 0.2500 kg/ha): 9.0
- SAGPY herbicidal effect rating ([8]; 0.0313 kg/ha): 5.0
- SAGPY herbicidal effect rating ([8]; 0.0625 kg/ha): 9.0
- SAGPY herbicidal effect rating ([8]; 0.1250 kg/ha): 9.0
- SAGPY herbicidal effect rating ([8]; 0.2500 kg/ha): 9.0
- Herbicidal rating CYPSE (CYPSE (Flatsedge) [9]; Rate 0.0313 kg/ha): 0.0
- Herbicidal rating CYPSE (CYPSE (Flatsedge) [9]; Rate 0.0625 kg/ha): 0.0
- Herbicidal rating CYPSE (CYPSE (Flatsedge) [9]; Rate 0.1250 kg/ha): 3.0
- Herbicidal rating CYPSE (CYPSE (Flatsedge) [9]; Rate 0.2500 kg/ha): 9.0

Source: patent publication US20020137929A1, “1 - (3-heterocyclylphenyl) isothiourea, -isourea, -guanidine and -amidine herbicidal agents” (Intellectual Property Department, BASF Aktiengesellschaft, priority 1998, published 2002)
